The assay has as its target T1, full length active recombinant SYK enzyme (Homo sapiens, UniProt P43405).
T1 construct: full length active recombinant SYK enzyme (Millipore, Calif.); purchased Millipore
The assay is described as follows: Inhibition of Syk tyrosine phosphorylation activity (LANCE TR-FRET kinase assay). In kind it is biochemical. Particulars: 1 nM active SYK enzyme, 550 nM SYK-substrate, 100 μM ATP, 1 hour at room temperature. In general terms: In TR-FRET formats the signal depends on donor and acceptor labels being close together.
By IC50 is commonly meant the concentration at which inhibition is half-maximal. Take `COc1cc(Nc2nc(N[C@@H]3CCCC(F)(F)[C@@H]3N)nnc2C(N)=O)ccc1Cl` [Example 230, 3-(((1R,2R)-2-amino-3,3-difluorocyclohexyl)amino)-5-((4-chloro-3-methoxyphenyl)amino)-1,2,4-triazine-6-carboxamide]: the IC50 was 100 to 1000 nM.
Regarding `Cn1cc(Nc2nc(N[C@@H]3CCCC[C@@H]3N)nnc2C(N)=O)cn1` [Example 78, 3-(((1R,2S)-2-aminocyclohexyl)amino)-5-((1-methyl-1H-pyrazol-4-yl)amino)-1,2,4-triazine-6-carboxamide], the IC50 was in the range of 100 to 1000 nM.
For `NC(=O)c1nnc(N)nc1Nc1cccc(-c2ncccn2)c1` [Example 92, 3-amino-5-((3-(pyrimidin-2-yl)phenyl)amino)-1,2,4-triazine-6-carboxamide] the value was over 1000 nM; for `NC(=O)c1nnc(N[C@@H]2CCCC[C@@H]2N)nc1Nc1cccc(F)c1` [Example 17, 3-(((1R,2S)-2-aminocyclohexyl)amino)-5-((3-fluorophenyl)amino)-1,2,4-triazine-6-carboxamide], 1 to 10 nM.
For `Cc1ccc(Nc2nc(N[C@@H]3CCOC[C@@H]3N)nnc2C(N)=O)cc1` [Example 9, 3-(((3R,4R)-3-aminotetrahydro-2H-pyran-4-yl)amino)-5-(p-tolylamino)-1,2,4-triazine-6-carboxamide], the IC50 is 10 to 100 nM.
For `COc1ccc(Nc2nc(N[C@H](CC(C)C)C(N)=O)nnc2C(N)=O)cc1C(F)(F)F` [Example 113, (R)-3-((1-amino-4-methyl-1-oxopentan-2-yl)amino)-5-((4-methoxy-3-(trifluoromethyl)phenyl)amino)-1,2,4-triazine-6-carboxamide] the value was 10 to 100 nM; for `NC(=O)c1nnc(N[C@@H]2CCCC(F)(F)[C@@H]2N)nc1Nc1ccc2c(c1)COCC2` [Example 228, 3-(((1R,2R)-2-amino-3,3-difluorocyclohexyl)amino)-5-(isochroman-7-ylamino)-1,2,4-triazine-6-carboxamide], 1 to 10 nM.
`NC(=O)c1nnc(N[C@@H]2CCCC[C@@H]2N)nc1Nc1cc(F)cc(F)c1` [Example 20, 3-(((1R,2S)-2-aminocyclohexyl)amino)-5-((3,5-difluorophenyl)amino)-1,2,4-triazine-6-carboxamide]: the IC50 was in the range of 1 to 10 nM.
For `Cc1cccc(Nc2nc(N[C@@H]3CCCC(F)(F)[C@@H]3N)nnc2C(N)=O)c1` [Example 12, 3-(((1R,2R)-2-amino-3,3-difluorocyclohexyl)amino)-5-(m-tolylamino)-1,2,4-triazine-6-carboxamide] the value was 10 to 100 nM; for `CC[C@@H](Nc1nnc(C(N)=O)c(Nc2ccc(Cl)c(OC)c2)n1)C(N)=O` [Example 232, (R)-3-((1-amino-1-oxobutan-2-yl)amino)-5-((4-chloro-3-methoxyphenyl)amino)-1,2,4-triazine-6-carboxamide], 10 to 100 nM.
Take `Cn1ncc2c(Nc3nc(N[C@@H]4CCCC[C@@H]4N)nnc3C(N)=O)cccc21` [Example 105, 3-(((1R,2S)-2-aminocyclohexyl)amino)-5-((1-methyl-1H-indazol-4-yl)amino)-1,2,4-triazine-6-carboxamide]: the IC50 fell in the range of 1 to 10 nM.
Turning to `Cn1ncc2ccc(Nc3nc(N[C@@H]4CCCC[C@@H]4N)nnc3C(N)=O)cc21` [Example 182, 3-(((1R,2S)-2-aminocyclohexyl)amino)-5-((1-methyl-1H-indazol-6-yl)amino)-1,2,4-triazine-6-carboxamide], the IC50 was under 1 nM.
For `Cc1cc(Nc2nc(N[C@@H]3CCCC[C@@H]3N)nnc2C(N)=O)sn1` [Example 101, 3-(((1R,2S)-2-aminocyclohexyl)amino)-5-((3-methylisothiazol-5-yl)amino)-1,2,4-triazine-6-carboxamide] the value was 10 to 100 nM; for `NC(=O)c1nnc(N[C@@H]2CCCC[C@@H]2N)nc1Nc1ccc2nccn2c1` [Example 44, 3-(((1R,2S)-2-aminocyclohexyl)amino)-5-(imidazo[1,2-a]pyridin-6-ylamino)-1,2,4-triazine-6-carboxamide], 10 to 100 nM; for `Cc1cc(Nc2nc(N[C@@H]3CCCC[C@@H]3N)nnc2C(N)=O)ccc1C(=O)N1CCC1` [Example 64, 3-(((1R,2S)-2-aminocyclohexyl)amino)-5-((4-(azetidine-1-carbonyl)-3-methylphenyl)amino)-1,2,4-triazine-6-carboxamide], 10 to 100 nM.
For `NC(=O)c1nnc(N[C@@H]2CCCC[C@@H]2N)nc1Nc1cccc(Cl)c1` [Example 23, 3-(((1R,2S)-2-aminocyclohexyl)amino)-5-((3-chlorophenyl)amino)-1,2,4-triazine-6-carboxamide] the value was 1 to 10 nM; for `CC(C)C[C@@H](Nc1nnc(C(N)=O)c(Nc2cccc(-n3nccn3)c2)n1)C(N)=O` [Example 83, (R)-5-((3-(2H-1,2,3-triazol-2-yl)phenyl)amino)-3-((1-amino-4-methyl-1-oxopentan-2-yl)amino)-1,2,4-triazine-6-carboxamide], 10 to 100 nM.
For `CC(C)C[C@@H](Nc1nnc(C(N)=O)c(Nc2ccc3c(ccc[n+]3[O-])c2)n1)C(N)=O` [Example 54, (R)-6-((3-((1-amino-4-methyl-1-oxopentan-2-yl)amino)-6-carbamoyl-1,2,4-triazin-5-yl)amino)quinoline 1-oxide] the value was 10 to 100 nM.
For the compound `NC(=O)c1nnc(N[C@@H]2CCCC[C@@H]2N)nc1Nc1ccc(F)nc1` [Example 67, 3-(((1R,2S)-2-aminocyclohexyl)amino)-5-((6-fluoropyridin-3-yl)amino)-1,2,4-triazine-6-carboxamide], the IC50 was in the range of 100 to 1000 nM.
`NC(=O)c1nnc(N[C@@H]2CCCC(F)(F)[C@@H]2N)nc1Nc1cccc(-c2ncco2)c1` [Example 130, 3-(((1R,2R)-2-amino-3,3-difluorocyclohexyl)amino)-5-((3-(oxazol-2-yl)phenyl)amino)-1,2,4-triazine-6-carboxamide]: the IC50 is over 1000 nM.
For `NC(=O)c1nnc(N[C@@H]2CCCC[C@@H]2N)nc1Nc1ccc(Cl)cc1` [Example 27, 3-(((1R,2S)-2-aminocyclohexyl)amino)-5-((4-chlorophenyl)amino)-1,2,4-triazine-6-carboxamide] the value was 1 to 10 nM; for `NC(=O)c1nnc(N[C@@H]2CCCC[C@@H]2N)nc1Nc1ccc(-c2ncco2)cc1` [Example 131, 3-(((1R,2S)-2-aminocyclohexyl)amino)-5-((4-(oxazol-2-yl)phenyl)amino)-1,2,4-triazine-6-carboxamide], 1 to 10 nM.
With `CN(C)c1ccc(Nc2nc(N[C@@H]3CCCC[C@@H]3N)nnc2C(N)=O)cc1Cl` [Example 175, 3-(((1R,2S)-2-aminocyclohexyl)amino)-5-((3-chloro-4-(dimethylamino)phenyl)amino)-1,2,4-triazine-6-carboxamide] the figure was 1 to 10 nM.
With `CC[C@@H](Nc1nnc(C(N)=O)c(Nc2ccc(C)c(Cl)c2)n1)C(N)=O` [Example 222, (R)-3-((1-amino-1-oxobutan-2-yl)amino)-5-((3-chloro-4-methylphenyl)amino)-1,2,4-triazine-6-carboxamide] the figure was 10 to 100 nM.
As for `NC(=O)c1nnc(N[C@@H]2CCCC[C@@H]2N)nc1Nc1ccc(F)c(Cl)c1` [Example 24, 3-(((1R,2S)-2-aminocyclohexyl)amino)-5-((3-chloro-4-fluorophenyl)amino)-1,2,4-triazine-6-carboxamide], the IC50 was in the range of 1 to 10 nM.
With `Cn1ccc2c(Nc3nc(NCC4CCC(=O)N4)nnc3C(N)=O)cccc21` (stereo not shown) [Example 89, 5-((1-methyl-1H-indol-4-yl)amino)-3-(((5-oxopyrrolidin-2-yl)methyl)amino)-1,2,4-triazine-6-carboxamide] the figure was 100 to 1000 nM.
For `NC(=O)c1nnc(N[C@@H]2CCCC[C@@H]2N)nc1Nc1cnn2ccccc12` [Example 35, 3-(((1R,2S)-2-aminocyclohexyl)amino)-5-(pyrazolo[1,5-a]pyridin-3-ylamino)-1,2,4-triazine-6-carboxamide] the value was 1 to 10 nM.
For `NC(=O)c1nnc(N[C@@H]2CCCC[C@@H]2N)nc1Nc1cccc2ncsc12` [Example 40, 3-(((1R,2S)-2-aminocyclohexyl)amino)-5-(benzo[d]thiazol-7-ylamino)-1,2,4-triazine-6-carboxamide] the value was 10 to 100 nM; for `CC[C@@H](Nc1nnc(C(N)=O)c(Nc2csc3ncccc23)n1)C(N)=O` [Example 39, (R)-3-((1-amino-1-oxobutan-2-yl)amino)-5-(thieno[2,3-b]pyridin-3-ylamino)-1,2,4-triazine-6-carboxamide], 1 to 10 nM; for `CC[C@@H](Nc1nnc(C(N)=O)c(Nc2ccc3c(c2)COC3)n1)C(N)=O` [Example 215, (R)-3-((1-amino-1-oxobutan-2-yl)amino)-5-((1,3-dihydroisobenzofuran-5-yl)amino)-1,2,4-triazine-6-carboxamide], 10 to 100 nM.
Take `NC(=O)c1nnc(N[C@@H]2CCCC[C@@H]2N)nc1Nc1cc(Cl)c2ncccc2c1` [Example 176, 3-(((1R,2S)-2-aminocyclohexyl)amino)-5-((8-chloroquinolin-6-yl)amino)-1,2,4-triazine-6-carboxamide]: the IC50 is under 1 nM.
As for `NC(=O)c1nnc(N[C@@H]2CCOC[C@@H]2N)nc1Nc1ccc2scnc2c1` [Example 247, 3-(((3R,4R)-3-aminotetrahydro-2H-pyran-4-yl)amino)-5-(benzo[d]thiazol-5-ylamino)-1,2,4-triazine-6-carboxamide], the IC50 was in the range of 10 to 100 nM.
Regarding `NC(=O)c1nnc(N[C@@H]2CCCC[C@@H]2N)nc1Nc1cncs1` [Example 133, 3-(((1R,2S)-2-aminocyclohexyl)amino)-5-(thiazol-5-ylamino)-1,2,4-triazine-6-carboxamide], the IC50 was in the range of 10 to 100 nM.
With `Cn1cc(Nc2nc(N[C@@H]3CCOC[C@@H]3N)nnc2C(N)=O)cn1` [Example 79, 3-(((3R,4R)-3-aminotetrahydro-2H-pyran-4-yl)amino)-5-((1-methyl-1H-pyrazol-4-yl)amino)-1,2,4-triazine-6-carboxamide] the figure was 100 to 1000 nM.

The values are drawn from US9040530B2, “1,2,4-triazine-6-carboxamide kinase inhibitors” (Portola Pharmaceuticals, Inc., priority 2012, dated 2015).
